US11504425B2, “Amphiphilic oligodeoxynucleotide conjugates as adjuvant enhancers” (WAYNE STATE UNIVERSITY, priority 2019, dated 2022)
“Also recorded” adds a separate entry of the source. Oligonucleotides are written 5' to 3', each unit as a sugar letter and its base; * is a phosphorothioate linkage, no mark a phosphodiester; rarer units and linkages stand in square brackets, end groups in braces. Plain capitals give the bases only. {Lipid} = lipid portion of the amphiphilic conjugate (lipid variable, as described in specification); d = 2'-deoxy (DNA)

Columns and labels:
[1] = target: T1, human TLR7 (hTLR7) (Homo sapiens, UniProt Q9NYK1); experiment: HEK hTLR7 reporter cells NF-κB/SEAP; assay type: cell-based; conditions: 2 μM IMQ + 1 μM ODN, 24 h
T1 construct: host or cells: HEK-Blue-hTLR7 (HEK293)
T1 sequence (Q9NYK1 27-1049): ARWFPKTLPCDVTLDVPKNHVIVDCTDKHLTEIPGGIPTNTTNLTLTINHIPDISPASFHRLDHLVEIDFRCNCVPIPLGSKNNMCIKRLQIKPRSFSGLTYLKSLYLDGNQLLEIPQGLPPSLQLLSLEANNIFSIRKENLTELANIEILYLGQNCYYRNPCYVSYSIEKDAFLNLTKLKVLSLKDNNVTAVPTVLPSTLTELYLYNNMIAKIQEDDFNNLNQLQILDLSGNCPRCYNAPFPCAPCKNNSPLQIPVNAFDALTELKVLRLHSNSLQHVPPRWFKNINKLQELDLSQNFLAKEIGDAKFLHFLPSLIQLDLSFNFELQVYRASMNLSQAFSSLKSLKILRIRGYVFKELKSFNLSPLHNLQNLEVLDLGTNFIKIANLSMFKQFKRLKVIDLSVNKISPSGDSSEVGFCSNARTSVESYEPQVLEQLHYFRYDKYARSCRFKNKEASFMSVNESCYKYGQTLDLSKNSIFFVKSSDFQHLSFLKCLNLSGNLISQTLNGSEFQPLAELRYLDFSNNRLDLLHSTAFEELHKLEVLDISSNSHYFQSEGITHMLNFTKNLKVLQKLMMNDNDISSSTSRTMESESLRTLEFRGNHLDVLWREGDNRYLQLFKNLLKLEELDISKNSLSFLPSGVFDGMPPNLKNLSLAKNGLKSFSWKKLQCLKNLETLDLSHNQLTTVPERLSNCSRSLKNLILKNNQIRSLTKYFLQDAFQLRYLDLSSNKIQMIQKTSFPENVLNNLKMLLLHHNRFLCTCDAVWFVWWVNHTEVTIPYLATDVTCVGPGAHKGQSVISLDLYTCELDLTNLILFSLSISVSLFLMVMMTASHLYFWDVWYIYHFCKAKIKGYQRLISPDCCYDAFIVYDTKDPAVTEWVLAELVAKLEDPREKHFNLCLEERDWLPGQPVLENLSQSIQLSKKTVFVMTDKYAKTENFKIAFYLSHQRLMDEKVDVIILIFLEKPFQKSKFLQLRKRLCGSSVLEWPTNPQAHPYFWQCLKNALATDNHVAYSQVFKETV
Description: (§1) HEK-Blue™-mTLR7, mTLR8, hTLR7, hTLR8, and RAW-Blue™ cells were purchased from InvivoGen and were used to evaluate bioactivities of lipo ODNs and TLR 7/8 ligands in vitro. All these cell lines were cultured with DMEM supplemented with 10% FBS, 1% P/S and 100 μg/mL Normocin at 37° C. with 5% CO2. […] After incubating for 24 h, SEAP levels were quantified by developing supernatants with QuantiBlue™ substrate for 1 h and reading absorption at 620 nm, following manufacturer's instructions.
(§2) HEK293 cells transfected with human TLR7 or 8 were used. The cells were stimulated with IMQ in the presence of several inhibitory oligonucleotides reported in the literature. […] In contrast, all the unmodified ODNs maintained their inhibitory function, reducing the NF-κB secretion to basal levels (FIG. 8A). We then plotted the IMQ dose response curve in human TLR-7 transfected HEK293 cells.

[2] = test system: TLR7-mediated NF-κB activation in Raw-Blue reporter cells; experiment: Raw-Blue NF-κB/SEAP reporter stimulation with TLR7 ligands; assay type: cell-based, murine; conditions: for IMQ-induced NF-κB activation (SEAP) in the presence of the ODN: 2 μM IMQ + 1 μM ODN, FBS-supplemented medium
Description: as §1
Following subcutaneous injection, lipid-modified oligonucleotides efficiently accumulated in the draining lymph nodes by binding and trafficking with endogenous albumin protein (Liu et al., Nature 507, 519-522, 2014; Yu et al., Pharmaceutical Res. 35: 56, 2018). Inspired by that prior work, the current study was aimed to take advantage of lipid functionalization in other oligonucleotide-based TLR inhibitors to further expand the pool of lipo suppressive ODNs. The therapeutic efficacy of lipid-modified IRS 954 in suppressing TLR7-mediated immune activation and alleviating the severity of SLE was investigated. Imiquimod (IMQ; FIG. 1A) was first used to stimulate TLR7-mediated immune activation in Raw-Blue reporter cells. For the initial experiments, Raw Blue cells-a murine RAW 264.7 macrophage cell line which expresses secreted embryonic alkaline phosphatase (SEAP) under the control of an NF-κB and AP-1, were used. Raw Blue cells express many toll-like receptors, including TLR-7, TLR-8, and TLR-9. The immunosuppressive capability of unmodified or lipo IRS 954 was determined by quantifying the level of TLR7-induced NF-κB activation.

[3] = target: T2, human TLR8 (hTLR8) (Homo sapiens, UniProt Q9NR97); experiment: HEK hTLR8 reporter cells NF-κB/SEAP; assay type: cell-based; conditions: 1 μg/ml or indicated concentrations TLR8-506 + 1 μM ODN, 24 h
T2 construct: host or cells: HEK-Blue-hTLR8 (HEK293)
T2 sequence (Q9NR97 27-1041): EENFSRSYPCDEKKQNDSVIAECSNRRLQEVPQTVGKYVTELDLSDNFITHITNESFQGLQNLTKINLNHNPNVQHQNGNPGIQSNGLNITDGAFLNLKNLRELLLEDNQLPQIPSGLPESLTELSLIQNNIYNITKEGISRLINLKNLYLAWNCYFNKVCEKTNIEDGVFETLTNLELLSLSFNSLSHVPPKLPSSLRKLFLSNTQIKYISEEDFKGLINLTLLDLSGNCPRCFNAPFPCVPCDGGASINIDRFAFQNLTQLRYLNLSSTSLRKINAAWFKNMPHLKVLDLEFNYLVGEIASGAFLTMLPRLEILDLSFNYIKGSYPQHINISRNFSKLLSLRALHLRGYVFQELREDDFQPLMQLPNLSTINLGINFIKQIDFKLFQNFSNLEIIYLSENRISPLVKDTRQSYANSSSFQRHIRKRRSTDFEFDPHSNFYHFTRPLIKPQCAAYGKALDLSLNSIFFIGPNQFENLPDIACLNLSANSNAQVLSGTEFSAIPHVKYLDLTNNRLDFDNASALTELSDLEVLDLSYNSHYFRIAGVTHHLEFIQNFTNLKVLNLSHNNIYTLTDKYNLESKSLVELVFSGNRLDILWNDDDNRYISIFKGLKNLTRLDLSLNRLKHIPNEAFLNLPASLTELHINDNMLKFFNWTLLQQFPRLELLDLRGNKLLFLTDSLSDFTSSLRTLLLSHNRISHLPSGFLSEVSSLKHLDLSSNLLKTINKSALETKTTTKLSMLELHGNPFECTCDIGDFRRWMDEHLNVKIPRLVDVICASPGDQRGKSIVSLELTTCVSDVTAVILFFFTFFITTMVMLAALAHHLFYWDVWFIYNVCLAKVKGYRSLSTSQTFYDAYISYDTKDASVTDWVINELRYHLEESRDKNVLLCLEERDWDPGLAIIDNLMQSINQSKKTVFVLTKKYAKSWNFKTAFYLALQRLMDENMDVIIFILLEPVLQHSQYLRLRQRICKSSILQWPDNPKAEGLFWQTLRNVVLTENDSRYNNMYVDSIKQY
Description: as §1, §2

[4] = target: T3, mouse TLR7 (mTLR7) (Mus musculus, UniProt P58681); experiment: HEK mTLR7 reporter cells NF-κB/SEAP; assay type: cell-based; conditions: soluble ligand alone, 24 h
T3 construct: host or cells: HEK-Blue-mTLR7 (HEK293)
T3 sequence (P58681 27-1050): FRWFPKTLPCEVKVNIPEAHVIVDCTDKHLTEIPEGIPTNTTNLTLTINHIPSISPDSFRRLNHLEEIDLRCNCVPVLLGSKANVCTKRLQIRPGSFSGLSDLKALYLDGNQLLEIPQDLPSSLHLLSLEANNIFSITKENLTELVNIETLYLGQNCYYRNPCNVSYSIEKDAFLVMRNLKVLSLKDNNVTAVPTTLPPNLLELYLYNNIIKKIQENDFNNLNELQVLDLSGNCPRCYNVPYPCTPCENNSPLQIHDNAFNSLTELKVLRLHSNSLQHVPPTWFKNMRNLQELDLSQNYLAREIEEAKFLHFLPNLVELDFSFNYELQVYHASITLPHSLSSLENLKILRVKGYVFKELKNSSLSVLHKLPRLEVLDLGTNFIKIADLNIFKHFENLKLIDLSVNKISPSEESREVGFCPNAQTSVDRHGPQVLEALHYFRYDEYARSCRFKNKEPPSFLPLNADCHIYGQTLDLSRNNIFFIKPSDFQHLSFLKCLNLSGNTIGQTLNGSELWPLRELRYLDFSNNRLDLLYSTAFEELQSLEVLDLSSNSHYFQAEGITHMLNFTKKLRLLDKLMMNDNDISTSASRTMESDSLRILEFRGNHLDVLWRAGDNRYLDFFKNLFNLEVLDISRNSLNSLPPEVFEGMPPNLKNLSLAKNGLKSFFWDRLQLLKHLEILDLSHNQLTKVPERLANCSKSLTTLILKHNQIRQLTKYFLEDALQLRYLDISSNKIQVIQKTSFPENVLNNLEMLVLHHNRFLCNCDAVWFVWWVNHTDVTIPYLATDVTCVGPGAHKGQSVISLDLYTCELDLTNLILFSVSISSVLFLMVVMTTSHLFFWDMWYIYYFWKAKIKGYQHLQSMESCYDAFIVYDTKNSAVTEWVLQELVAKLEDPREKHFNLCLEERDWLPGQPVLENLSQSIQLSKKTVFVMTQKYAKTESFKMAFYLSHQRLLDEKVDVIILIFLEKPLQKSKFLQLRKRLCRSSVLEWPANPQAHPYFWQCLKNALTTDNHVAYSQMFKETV
Description: as §1
Raw Blue cells which respond to both murine TLR-7 and TLR-8 are also included to assess the overall modulatory effect. half-maximal effective concentration (EC50) and potency of several classic TLR7/8 ligands were evaluated in murine TLR7 and TLR8 reporter cells.

Compound | IMQ-mediated NF-κB stimulation in hTLR7 cells in the presence of the ODN [1] | IMQ-induced NF-κB activation (SEAP) in the presence of the ODN ([2]; 24 h) | activity of the ODN alone in Raw Blue cells ([2]; without IMQ) | TLR8-506 stimulation of hTLR8 cells in the presence of the ODN [3] | NF-κB activation of Raw Blue cells by the ligand alone ([2]; ligand alone, 24 h) | mTLR7 activation by the ligand alone [4]
5′-L-TGCTCCTGGAGGGGTTGT-3′ (DNA NTGCTCCTGGAGGGGTTGT; 5' lipid modification; Lipid-modified synthetic oligonucleotide; (1)..(1) n=placeholder indicative of lipid portion of conjugate, as described in specification; lipid is variable, depending on embodiment(s)) [lipo IRS 954] | markedly enhanced IMQ-mediated NF-κB stimulation | enhanced TLR7-mediated activation; also recorded: more than twofold increase in TLR-7-mediated activation | no activity | partially inhibited the TLR-8 signaling |  | 
CC(C)Cn1cnc2c(N)nc3ccccc3c21 [IMQ, imiquimod] |  |  |  |  | resulted in secretion of NF-κB | activated mTLR-7 at different concentrations
5′-TGCTCCTGGAGGGGTTGT-3′ (DNA dT*dG*dC*dT*dC*dC*dT*dG*dG*dA*dG*dG*dG*dG*dT*dT*dG*dT) [IRS 954] |  | no detectable NF-κB was observed |  |  |  | 
lipo ODN 2087: lipid modified ODN 2087 (5′-TCCTGAGCTTGAAGT-3′) (DNA {Lipid}-dT*dC*dC*dT*dG*dA*dG*dC*dT*dT*dG*dA*dA*dG*dT) | markedly enhanced IMQ-mediated NF-κB stimulation |  |  | partially inhibited the TLR-8 signaling |  | 
